Data as given in the OPERA property sets (Mansouri et al. 2018).

Conditions: not given

SMILES	boiling point [°C]	log10 vapour pressure (mmHg)	melting point [°C]	log10 Henry constant (atm·m³/mol)	log10 Koc (L/kg)	ready biodegradability	log10 biodegradation half-life (days)
C=C(C)CC(C)=O	124	1.18	-72.6	–	–	–	–
Cc1nnc(N)s1	–	–	224	–	–	–	–
CC[N+](C)(CC)CCOC(=O)C(O)(c1cccs1)C1CCCC1.[Br-] (stereo not drawn)	–	–	125	–	–	–	–
Nc1ccccc1	184	-0.31	-6	-5.69	1.6	readily biodegradable	–
O=[N+]([O-])C(Br)(Br)Br	–	–	10	–	–	–	–
CC(=O)Nc1cccc([N+](=O)[O-])c1	–	–	155	–	1.94	–	–
CCOC(=O)CCC(C)=O	206	-0.682	–	–	–	–	–
CC(O)CC(C)(C)O (stereo not drawn)	198	-1.89	-50	–	–	readily biodegradable	–
O=C(O)CSc1ccccc1	–	–	65	–	–	–	–
CC1(C)[C@H]2CC[C@]1(C)[C@H](O)C2	210	–	–	–	–	–	–
Cc1nc2ccccc2s1	238	-1.52	14	–	–	–	–
CCOC(=O)C(=Cc1ccccc1)C(=O)OCC	–	–	32	–	–	–	–
O=C(C=CC(=O)Oc1ccccc1)Oc1ccccc1	–	–	73	–	–	–	–
Cc1ccc(C(=O)O)cc1C	–	–	165	–	–	–	–
O=C(O)Cc1cc(I)c(Oc2ccc(O)c(I)c2)c(I)c1	–	–	182	–	–	–	–
C[C@H]1CC[C@@H]2[C@@H](C)[C@H]3[C@H](C[C@H]4[C@@H]5CC=C6C[C@@H](O)CC[C@]6(C)[C@H]5CC[C@]34C)N2C1	–	–	218	–	–	–	–
OCC(O)CO	290	-3.77	18.2	-7.76	–	readily biodegradable	–
CC1OC(=O)C(C)OC1=O (stereo not drawn)	–	–	118	–	–	–	–
CC=CCC	36.7	–	-146	–	–	–	–
CS(=O)(=O)c1cc(C(F)(F)F)ccc1C(=O)c1cnoc1C1CC1	–	-8.12	140	-9.73	–	–	–
Cn1c(=O)cc[nH]c1=O	–	-3.15	–	–	–	–	–
CC(=O)F	20.8	–	-84	–	–	–	–
FC(F)(F)C(F)(F)I	13	–	–	–	–	–	–
CC(C)C(C)C(C)C(C)C (stereo not drawn)	156	–	–	–	–	–	–
Cc1ccc(CO)cc1	217	–	61.5	–	–	–	–
C[C@@H]1O[C@@H](O[C@H]2C[C@@H](O)[C@]3(CO)[C@H]4[C@H](O)C[C@]5(C)[C@@H](C6=CC(=O)OC6)CC[C@]5(O)[C@@H]4CC[C@]3(O)C2)[C@H](O)[C@H](O)[C@H]1O	–	–	200	–	–	–	–
CN(C)C(=O)Nc1cccc(Cl)c1	–	–	–	–	1.79	–	–

SMILES	boiling point [°C]	log10 vapour pressure (mmHg)	melting point [°C]	log10 Henry constant (atm·m³/mol)	log10 Koc (L/kg)	ready biodegradability	log10 biodegradation half-life (days)
Cc1ccccc1C(=O)Nc1cccc(OC(C)C)c1	–	-6.38	92.5	–	–	–	–
CC(O)COc1ccccc1 (stereo not drawn)	243	–	–	–	–	–	–
CC(=O)O[C@@H]1CC2CCC1(C)C2(C)C (stereo partly drawn)	221	-0.642	29	–	–	–	–
BrCc1ccccc1Br	–	–	31	–	–	–	–
COc1cccc(OC)c1OC	235	–	48.5	–	–	–	–
FC(F)=CCl	-18.5	3.55	-138	–	–	–	–
CC(=O)c1ccccc1	202	-0.401	20	-4.98	1.8	readily biodegradable	–
Clc1ccc(Oc2c(Cl)cccc2Cl)cc1	–	-3.66	–	–	–	–	–
O=c1c(O)c(-c2ccccc2)oc2cc(O)cc(O)c12	–	–	214	–	–	–	–
CN(CCO)c1nc2c(c(=O)n(C)c(=O)n2C)n1C	–	–	105	–	–	–	–
Brc1cccc2c1Oc1ccccc1O2	–	-4.58	104	–	–	–	–
CCC(Br)Br	134	–	–	–	–	–	–
CC(O)CN(CC(C)O)CC(C)O (stereo not drawn)	305	–	45	–	–	not readily biodegradable	–
CC(C)(Oc1ccc(Cl)cc1)C(=O)OCc1cccnc1	–	–	48.5	–	–	–	–
Cc1ccc(O)cc1Cl	228	–	55.5	–	–	not readily biodegradable	–
CN(C)CN(C)C	83	–	–	–	–	–	–
OCc1cccs1	207	–	–	–	–	–	–
COc1ccc2c(c1OC)CN(C)CCc1cc3c(cc1C(=O)C2)OCO3	–	–	160	–	–	–	–
CCCCCCCCCCCCS(=O)(=O)O	–	–	–	–	–	readily biodegradable	–
Cc1ccc(C)c(C)c1	169	0.322	-43.8	-2.21	–	not readily biodegradable	0.602
N[C@H](CCC(=O)O)C(=O)O	–	–	201	–	–	–	–
CC(=O)OC1CCCCC1C (stereo not drawn)	–	–	–	–	–	readily biodegradable	–
CNC(=O)Oc1cccc2c1OC(C)(C)C2	–	-5.31	151	–	1.75	–	–
CCc1ccc2cc(O)c(O)cc2c1	–	–	149	–	–	–	–
FC(Cl)(Cl)C(Cl)Cl	116	–	-82.6	–	–	–	–
O=C(OCc1ccccc1)c1ccccc1C(=O)OCc1ccccc1	–	–	44	–	–	–	–
C=CCCCCCCC=C	167	–	–	–	–	–	–

Same assay, conditions: fish

SMILES	log10 BCF	log10 biotransformation half-life (days)
Cc1cccc2ccccc12	1.73	–
Brc1cc(Br)c(Oc2c(Br)cc(Br)c(Br)c2Br)c(Br)c1Br	5.3	–
Clc1ccc(Oc2ccc(Cl)cc2Cl)c(Cl)c1	–	2.28
O=C(Nc1ccccc1)c1cc2ccccc2cc1O	0.81	–
CCCCC(CC)COC(=O)CC(C(=O)OCC(CC)CCCC)S(=O)(=O)O (stereo not drawn)	0.97	–
Clc1cc2oc3c(Cl)c(Cl)c(Cl)cc3c2cc1Cl	4.13	1.36
Nc1ccccc1	0.21	-0.78
CC(O)CN(CC(C)O)CC(C)O (stereo not drawn)	-0.24	–
Cc1ccc(C)c(C)c1	2.08	-0.31
